Data from PubChem BioAssay (NCI).
Values joined by “and” are separate entries in the source; they are usually repeats but may differ in a detail not shown here. Equal entries are not always repeated.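 Method: 48-hour compound exposure of cells in 96-well plates, five concentrations, linear interpolation of endpoints. Abbreviation: GI50, concentration required for 50% inhibition of growth. TGI: total growth inhibition.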

Columns and labels:
Test in all cases: NCI tumour cell line growth inhibition, 48 h
CAKI-1 renal = tested on: CAKI-1 renal
CCRF-CEM leukemia = tested on: CCRF-CEM leukemia
EKVX NSCLC = tested on: EKVX NSCLC
KM12 colon = tested on: KM12 colon
M14 melanoma = tested on: M14 melanoma
MCF7 breast = tested on: MCF7 breast
NCI-H460 lung = tested on: NCI-H460 lung
SK-MEL-5 melanoma = tested on: SK-MEL-5 melanoma
SNB-19 CNS = tested on: SNB-19 CNS
UO-31 renal = tested on: UO-31 renal

Row | SMILES | TGI (CAKI-1 renal) [µM] | TGI (CCRF-CEM leukemia) [µM] | TGI (EKVX NSCLC) | TGI (KM12 colon) [µM] | TGI (M14 melanoma) [µM] | TGI (MCF7 breast) [µM] | TGI (NCI-H460 lung) [µM] | TGI (SK-MEL-5 melanoma) | TGI (SNB-19 CNS) | TGI (UO-31 renal) | GI50 (CCRF-CEM leukemia) [µM] | GI50 (SK-MEL-5 melanoma) | GI50 (SNB-19 CNS) | GI50 (UO-31 renal) | GI50 (CAKI-1 renal) [µM] | GI50 (EKVX NSCLC) [µM] | GI50 (KM12 colon) [µM] | GI50 (M14 melanoma) [µM] | GI50 (MCF7 breast) [µM] | GI50 (NCI-H460 lung) [µM]
1 | C=C/C(C)=C\CC1[C@](C)(O)CC[C@H]2C(C)(C)C(=O)CC[C@]12C (stereo not given in full) | > 100 | > 100 | > 100 µM | > 100 | > 100 | > 100 | > 100 | > 100 µM | > 100 µM | 57 µM | – | – | – | – | – | – | – | – | – | –
2 | ClCCCc1ccccc1C1=NCCc2ccccc21 | > 100 | > 100 | > 100 µM | > 100 | > 100 | > 100 | > 100 | 40.5 µM | > 100 µM | > 100 µM | – | – | – | – | – | – | – | – | – | –
3 | CCCCC(=O)c1c(O)nc2sccn2c1=O | > 10 | > 10 | > 10 µM | > 10 | > 10 | > 10 | > 10 | > 10 µM | > 10 µM | > 10 µM | – | – | – | – | – | – | – | – | – | –
4 | O=c1[nH]nc(-c2ccccc2)n1/N=C\c1ccccc1 | > 100 | > 100 | > 100 µM | > 100 | – | > 100 | > 100 | > 100 µM | – | > 100 µM | – | – | – | – | – | – | – | – | – | –
5 | O=[N+]([O-])c1ccc2sc(C=Nc3cnccn3)cc2c1 | > 100 | 40.4 | > 100 µM | > 100 | > 100 | > 100 | > 100 | > 100 µM | > 100 µM | > 100 µM | – | – | – | – | – | – | – | – | – | –
6 | O=C1NC(=O)C(C(CC(=O)c2ccc([N+](=O)[O-])cc2)c2ccccc2)C(=O)N1 (stereo not given) | – | > 100 | – | 30.4 | > 100 | 27 | > 100 | > 100 µM | > 100 µM | > 100 µM | – | – | – | – | – | – | – | – | – | –
7 | [Cl][Sn]([c]1ccccc1)([c]1ccccc1)[c]1ccccc1 | – | 0.156 | 0.985 µM and 0.239 µM and 0.119 µM | – | – | – | – | 0.325 µM and 0.242 µM and 0.158 µM | 1.07 µM and 0.24 µM and 0.129 µM | 0.366 µM and 0.209 µM and 0.127 µM | 0.029 | 0.166 µM and 0.114 µM and 0.0408 µM | 0.314 µM and 0.113 µM and 0.0355 µM | 0.183 µM and 0.0863 µM and 0.0343 µM | – | – | – | – | – | –
8 | CSCSSC | > 100 | > 100 | > 100 µM | > 100 | > 100 | > 100 | > 100 | > 100 µM | > 100 µM | > 100 µM | – | – | – | – | – | – | – | – | – | –
9 | CC(=O)OCC1OC(SC2=N/C(=C\c3ccc(Br)s3)C(=O)N2CN2CCOCC2)C(OC(C)=O)C(OC(C)=O)C1OC(C)=O (stereo not given) | 34.3 | – | 97.4 µM | 35.3 | – | 33.8 | 38.6 | 33.5 µM | 46.7 µM | 29.4 µM | – | – | – | – | – | – | – | – | – | –
10 | NCCCN(CCCN(C(=O)Nc1ccccc1)c1ccccc1)C(=O)Nc1ccccc1 | – | > 100 | > 100 µM | – | 44.8 | > 100 | 94.8 | 40.7 µM | > 100 µM | 65.8 µM | – | – | – | – | – | – | – | – | – | –
11 | CCCC(=O)NC(Nc1ccc(S(=O)(=O)Nc2cc(C)on2)cc1)(C(=O)OCC)C(F)(F)F (stereo not given) | > 100 | > 100 | > 100 µM | > 100 | > 100 | > 100 | – | > 100 µM | > 100 µM | > 100 µM | – | – | – | – | – | – | – | – | – | –
12 | O=C(N/N=C/C=C/c1ccc([N+](=O)[O-])o1)c1cc2ccccc2cc1O | 5.02 | – | 9.48 µM | 2.85 | 2.15 | 3.54 | 6.9 | 1.48 µM | 24.4 µM | 4.06 µM | – | 0.349 µM | 3.2 µM | 1.05 µM | 0.933 | 2.64 | 1.42 | 0.758 | 0.711 | 1.64
13 | O=S(Nc1ccccc1)c1ccc(N2CCOCC2)cc1 (stereo not given) | – | > 100 | > 100 µM | > 100 | > 100 | > 100 | > 100 | > 100 µM | > 100 µM | 42.7 µM | – | – | – | – | – | – | – | – | – | –
14 | COc1cc([C@@H]2c3cc4c(cc3[C@@H](c3c(O)cc(O)c5c3O[C@H](c3ccc(O)c(O)c3)[C@@H](O)C5)[C@H]3COC(=O)[C@H]23)OCO4)cc(OC)c1OC | 3.57 | > 100 | > 100 µM | 3.33 | > 100 | 3.11 | 3.72 | 92.7 µM | > 100 µM | – | – | – | – | – | – | – | – | – | – | –
15 | CCNCCCn1c2c(c3ccc(Cl)cc3c1=O)C(=O)c1cc(OC)cnc1-2 | 16.8 | 1.75 | 2.78 µM | 2.26 | 2.06 | – | – | 2.49 µM | 2.66 µM | 2.37 µM | 0.0239 | 0.813 µM | 0.585 µM | 0.543 µM | 0.0472 | 0.859 | 0.755 | 0.518 | – | –
16 | CCOC(=O)CCC(NC(=O)OCc1ccccc1)C(=O)NC(CCC(=O)OCC)C(=O)NC(CCC(=O)OCC)C(=O)NC(CCC(=O)OCC)C(=O)NC(CCC(=O)OCC)C(=O)NC(CCC(=O)OCC)C(=O)NC(CCC(=O)OCC)C(=O)OCC (stereo not given) | > 100 | > 100 | – | – | > 100 | > 100 | > 100 | > 100 µM | > 100 µM | > 100 µM | – | – | – | – | – | – | – | – | – | –
17 | CCOP(=O)(/C=C\n1cc(C)c(=O)[nH]c1=O)OCC | > 100 | > 100 | > 100 µM | > 100 | > 100 | > 100 | > 100 | > 100 µM | > 100 µM | – | – | – | – | – | – | – | – | – | – | –
18 | CSCCC(N)C(=O)NCCNc1ccc(NCCNC(=O)C(N)CCSC)c2c1C(=O)c1ccccc1C2=O (stereo not given) | 7.25 | – | 9.65 µM | 12.8 | 12 | 4.77 | 9.33 | 13.2 µM | 5.81 µM | 4.39 µM | – | – | – | – | – | – | – | – | – | –
19 | O=C(NCCCCCCCCCCCCNC(=O)Nc1cccc2ccccc12)Nc1cccc2ccccc12 | 31.7 | 33.4 | 43.3 µM | 33.6 | 43.6 | 35.1 | 29.4 | 46.2 µM | 30.1 µM | 33.9 µM | – | – | – | – | – | – | – | – | – | –
20 | CCOC(=O)c1nc2ccc(C(F)(F)F)cc2nc1Oc1cc(OC)c(OC)c(OC)c1 | – | – | > 100 µM | > 100 | > 100 | > 100 | > 100 | 96.4 µM | > 100 µM | > 100 µM | – | – | – | – | – | – | – | – | – | –
21 | Cc1cc(-c2nc3cc(F)ccc3s2)ccc1NC(=O)[C@@H](N)CCCCN | 20.3 | – | 16.5 µM | 3.36 | 4.86 | 11.8 | 2.24 | 27.1 µM | 28.9 µM | 13.9 µM | – | – | – | – | – | – | – | – | – | –
